Data set [1] relates to RAW264.7. Kind of data set: Genotoxicity in mouse RAW264.7 cells assessed as number of micronucleated cells at 4270 uM measured after 24 hrs by micronucleus test (reference value: 12 to 15). The class given is toxicity, cell-based. The settings on record: raw264.7, 24 h.
Data set [2] deals with RAW264.7. Briefly: Genotoxicity in mouse RAW264.7 cells assessed as mitotic index at 4270 uM measured after 24 hrs by micronucleus test (reference value: 40 to 249). The class given is toxicity, cell-based. The conditions noted are these: raw264.7, 24 h.
The nature of data set [3]: Genotoxicity in human HepG2 assessed as survival at 2135 uM measured after 24 hrs by micronucleus test (reference value: 100%). The class given is toxicity, cell-based. The conditions noted are these: HepG2 cells, read-out: Survival.
In data set [4] the test system is HepG2. Kind of data set: Genotoxicity in human HepG2 assessed as number of micronucleated cells at 2135 uM measured after 24 hrs by micronucleus test (reference value: 14 to 18). The data set is classed as toxicity, cell-based. The settings on record: hepg2, 24 h.
Data set [5] is described as follows: Toxicity in Salmonella typhimurium YG1024 at 5 to 100 ug/plate after 20 mins by colony counting method. The settings on record: salmonella enterica subsp. enterica serovar typhimurium, dose 5-100 µg.
A short description of data set [6]: Genotoxicity in human HepG2 assessed as survival at 213 uM measured after 24 hrs by micronucleus test (reference value: 100%). The conditions noted are these: HepG2 cells, read-out: Survival. The data set is classed as toxicity, cell-based.
The subject of data set [7] is RAW264.7. Kind of data set: Genotoxicity in mouse RAW264.7 cells assessed as number of micronucleated cells at 427 uM measured after 24 hrs by micronucleus test (reference value: 12 to 15). The data set is classed as toxicity, cell-based. The settings on record: raw264.7, 24 h.
A short description of data set [8]: Genotoxicity in mouse RAW264.7 cells assessed as survival at 2135 uM measured after 24 hrs by micronucleus test (reference value: 100%). The class given is toxicity, cell-based. The conditions noted are these: read-out: Survival.
In data set [9] the test system is RAW264.7. Kind of data set: Genotoxicity in mouse RAW264.7 cells assessed as number of micronucleated cells at 2135 uM measured after 24 hrs by micronucleus test (reference value: 12 to 15). The class given is toxicity, cell-based. The settings on record: raw264.7, 24 h.
Data set [10] relates to HepG2. Briefly: Genotoxicity in human HepG2 assessed as number of micronucleated cells at 4270 uM measured after 24 hrs by micronucleus test (reference value: 14 to 18). The class given is toxicity, cell-based. The settings on record: hepg2, 24 h.
Data set [11] in a line: Genotoxicity in mouse RAW264.7 cells assessed as survival at 4270 uM measured after 24 hrs by micronucleus test (reference value: 100%). The data set is classed as toxicity, cell-based. The conditions noted are these: read-out: Survival.
The test system of data set [12] is RAW264.7. Kind of data set: Cytotoxicity against mouse RAW264.7 cells at 21.3 to 427 uM measured after 24 hrs by LDH assay. The data set is classed as cell-based. The conditions noted are these: raw264.7, 24 h, dose 21.3-427 µM.
Data set [13] concerns HepG2. Kind of data set: Genotoxicity in human HepG2 assessed as number of micronucleated cells at 427 uM measured after 24 hrs by micronucleus test (reference value: 14 to 18). The class given is toxicity, cell-based. The settings on record: hepg2, 24 h.
Data set [14] has as its system HepG2. Briefly: Genotoxicity in human HepG2 assessed as mitotic index at 427 uM measured after 24 hrs by micronucleus test (reference value: 61 to 108). The class given is toxicity, cell-based. The settings on record: hepg2, 24 h.
The test system of data set [15] is HepG2. Kind of data set: Genotoxicity in human HepG2 assessed as mitotic index at 2135 uM measured after 24 hrs by micronucleus test (reference value: 61 to 108). The class given is toxicity, cell-based. The conditions noted are these: hepg2, 24 h.
Data set [16] deals with HepG2. Briefly: Cytotoxicity against human HepG2 cells at 21.3 to 427 uM measured after 24 hrs by LDH assay. The class given is cell-based. The conditions noted are these: hepg2, 24 h, dose 21.3-427 µM.
Data set [17] relates to RAW264.7. Briefly: Genotoxicity in mouse RAW264.7 cells assessed as number of micronucleated cells at 213 uM measured after 24 hrs by micronucleus test (reference value: 12 to 15). The data set is classed as toxicity, cell-based. The settings on record: raw264.7, 24 h.
The test system of data set [18] is HepG2. Kind of data set: Genotoxicity in human HepG2 assessed as number of micronucleated cells at 213 uM measured after 24 hrs by micronucleus test (reference value: 14 to 18). The class given is toxicity, cell-based. The settings on record: hepg2, 24 h.
The test system of data set [19] is HepG2. Briefly: Genotoxicity in human HepG2 assessed as mitotic index at 4270 uM measured after 24 hrs by micronucleus test (reference value: 61 to 108). The class given is toxicity, cell-based. The settings on record: hepg2, 24 h.
A short description of data set [20]: Genotoxicity in human HepG2 assessed as survival at 427 uM measured after 24 hrs by micronucleus test (reference value: 100%). The data set is classed as toxicity, cell-based. The settings on record: HepG2 cells, read-out: Survival.
In data set [21] the test system is RAW264.7. Briefly: Genotoxicity in mouse RAW264.7 cells assessed as mitotic index at 427 uM measured after 24 hrs by micronucleus test (reference value: 40 to 249). The class given is toxicity, cell-based. The conditions noted are these: raw264.7, 24 h.
Data set [22] has as its system RAW264.7. Kind of data set: Genotoxicity in mouse RAW264.7 cells assessed as mitotic index at 213 uM measured after 24 hrs by micronucleus test (reference value: 40 to 249). The settings on record: raw264.7, 24 h. The class given is toxicity, cell-based.
The subject of data set [23] is RAW264.7. Briefly: Genotoxicity in mouse RAW264.7 cells assessed as mitotic index at 175 uM measured after 24 hrs by micronucleus test (reference value: 40 to 249). The data set is classed as toxicity, cell-based. The settings on record: raw264.7, 24 h.
The subject of data set [24] is RAW264.7. Briefly: Genotoxicity in mouse RAW264.7 cells assessed as number of micronucleated cells at 175 uM measured after 24 hrs by micronucleus test (reference value: 12 to 15). The class given is toxicity, cell-based. The settings on record: raw264.7, 24 h.
For data set [25], the system named is RAW264.7. Briefly: Genotoxicity in mouse RAW264.7 cells assessed as number of micronucleated cells at 3500 uM measured after 24 hrs by micronucleus test (reference value: 12 to 15). The data set is classed as toxicity, cell-based. The settings on record: raw264.7, 24 h.
Data set [26] is described as follows: Genotoxicity in mouse RAW264.7 cells assessed as survival at 3500 uM measured after 24 hrs by micronucleus test (reference value: 100%). The class given is toxicity, cell-based. The settings on record: read-out: Survival.
Data set [27] is described as follows: Genotoxicity in human HepG2 assessed as survival at 175 uM measured after 24 hrs by micronucleus test (reference value: 100%). The class given is toxicity, cell-based. The settings on record: HepG2 cells, read-out: Survival.
Data set [28] can be described thus: Genotoxicity in mouse RAW264.7 cells assessed as survival at 175 uM measured after 24 hrs by micronucleus test (reference value: 100%). The data set is classed as toxicity, cell-based. The conditions noted are these: read-out: Survival.
The nature of data set [29]: Genotoxicity in mouse RAW264.7 cells assessed as survival at 350 uM measured after 24 hrs by micronucleus test (reference value: 100%). The class given is toxicity, cell-based. The conditions noted are these: read-out: Survival.
For data set [30], the system named is HepG2. Kind of data set: Genotoxicity in human HepG2 assessed as number of micronucleated cells at 350 uM measured after 24 hrs by micronucleus test (reference value: 14 to 18). The settings on record: hepg2, 24 h. The class given is toxicity, cell-based.
Data set [31] deals with RAW264.7. Briefly: Genotoxicity in mouse RAW264.7 cells assessed as mitotic index at 1750 uM measured after 24 hrs by micronucleus test (reference value: 40 to 249). The class given is toxicity, cell-based. The conditions noted are these: raw264.7, 24 h.
Data set [32] relates to RAW264.7. Briefly: Genotoxicity in mouse RAW264.7 cells assessed as number of micronucleated cells at 1750 uM measured after 24 hrs by micronucleus test (reference value: 12 to 15). The class given is toxicity, cell-based. The settings on record: raw264.7, 24 h.
The subject of data set [33] is RAW264.7. Kind of data set: Genotoxicity in mouse RAW264.7 cells assessed as number of micronucleated cells at 350 uM measured after 24 hrs by micronucleus test (reference value: 12 to 15). The class given is toxicity, cell-based. The conditions noted are these: raw264.7, 24 h.
Data set [34] deals with RAW264.7. Kind of data set: Cytotoxicity against mouse RAW264.7 cells assessed as induction of membrane damage at 17.5 to 350 uM measured after 24 hrs by LDH assay. The conditions noted are these: raw264.7, 24 h, dose 17.5-350 µM. The data set is classed as cell-based.
The nature of data set [35]: Toxicity in Salmonella typhimurium TA102 at 100 ug/plate measured after 20 mins in absence of S9 fraction by colony counting method. The conditions noted are these: salmonella enterica subsp. enterica serovar typhimurium, dose 100 µg.
Data set [36] deals with HepG2. Kind of data set: Genotoxicity in human HepG2 assessed as mitotic index at 175 uM measured after 24 hrs by micronucleus test (reference value: 61 to 108). The data set is classed as toxicity, cell-based. The conditions noted are these: hepg2, 24 h.
Data set [37] can be described thus: Genotoxicity in mouse RAW264.7 cells assessed as survival at 1750 uM measured after 24 hrs by micronucleus test (reference value: 100%). The data set is classed as toxicity, cell-based. The settings on record: read-out: Survival.
Data set [38] in a line: Genotoxicity in human HepG2 assessed as survival at 1750 uM measured after 24 hrs by micronucleus test (reference value: 100%). The data set is classed as toxicity, cell-based. The conditions noted are these: HepG2 cells, read-out: Survival.

Turning to `Cn1cnc([N+](=O)[O-])c1-n1cc(C2CC2)nn1`, the Activity in data set [1] is given as 20; in data set [4], 19; in [5], “Non-Toxic”; in data set [7] it was 11; in data set [9] it was 19; in data set [10], 27. Also, the Activity entry in data set [12] is “Non-Toxic”; in data set [13], 17; in [16], “Non-Toxic”; in data set [17], 12; in data set [18], 17. Moreover, the Activity_index was found to be 36 in data set [2]; 106 in data set [14]; 101 in data set [15]; 124 in [19]; 34 in data set [21]; 30 in [22]. Besides, the viability at 24 h, 2135 µM in data set [3] is 95%; in data set [8] it was 96%. Also, in [6], the viability at 24 h, 213 µM was 99%. Also, in [11], the viability at 24 h, 4270 µM amounted to 94%. In [20], the viability at 24 h, 427 µM was determined as 99%.
Regarding `CCCCCc1ccc(-c2cn(-c3c([N+](=O)[O-])ncn3C)nn2)cc1`, the Activity_index turned out to be 245 in data set [23], 166 in data set [31] and 111 in data set [36]. Also, the Activity is given as 11 in data set [24]; 39 in data set [25]; 25 in [30]; 23 in data set [32]; 13 in data set [33]; “Toxic” in data set [34]. The Activity entry in data set [35] was “Toxic”. For the same compound, the viability at 24 h, 3500 µM in data set [26] was determined as 71%. The viability at 24 h, 175 µM in [27] and in data set [28] was 99% in each case. Further, the viability at 24 h, 350 µM in data set [29] was found to be 99%. Further, the viability at 24 h, 1750 µM in data set [37] was 85%; in data set [38], 80%.

Source of the values: ChEMBL document CHEMBL4680133, “Novel nitroimidazole derivatives evaluated for their trypanocidal, cytotoxic, and genotoxic activities” (Eur J Med Chem, 2020).
